# From paper PMC12203311, “Design, synthesis, in silico and in vitro evaluation of pyrrole–indole hybrids as dual tubulin and aromatase inhibitors with potent anticancer activities” (RSC Advances, 2025)
# How the values were obtained:
# K-562 = assay: NCI60 five-dose screen; format: cell-based; details: Homo sapiens, K562, K-562, leukemia; for CC50: read-out: LC50 (the source's name)
# EKVX = assay: NCI60 five-dose screen; format: cell-based; details: Homo sapiens, NSC lung cancer; for CC50: read-out: LC50 (the source's name)
# NCI-H522 = assay: NCI60 five-dose screen; format: cell-based; details: Homo sapiens, NCI-H522, NSC lung cancer; for CC50: read-out: LC50 (the source's name)
# HCC-2998 = assay: NCI60 five-dose screen; format: cell-based; details: Homo sapiens, HCC-2998, colon cancer; for CC50: read-out: LC50 (the source's name)
# HT29 = assay: NCI60 five-dose screen; format: cell-based; details: Homo sapiens, HT-29, HT29, colon cancer; for CC50: read-out: LC50 (the source's name)
# SW-620 = assay: NCI60 five-dose screen; format: cell-based; details: Homo sapiens, SW-620, colon cancer; for CC50: read-out: LC50 (the source's name)
# SF-539 = assay: NCI60 five-dose screen; format: cell-based; details: Homo sapiens, SF-539, CNS cancer; for CC50: read-out: LC50 (the source's name)
# SNB-19 = assay: NCI60 five-dose screen; format: cell-based; details: Homo sapiens, SNB-19, CNS cancer; for CC50: read-out: LC50 (the source's name)
# M14 = assay: NCI60 five-dose screen; format: cell-based; details: Homo sapiens, M14, melanoma; for CC50: read-out: LC50 (the source's name)
# SK-MEL-2 = assay: NCI60 five-dose screen; format: cell-based; details: Homo sapiens, SK-MEL-2, melanoma; for CC50: read-out: LC50 (the source's name)
# UACC-62 = assay: NCI60 five-dose screen; format: cell-based; details: Homo sapiens, UACC-62, melanoma; for CC50: read-out: LC50 (the source's name)
# OVCAR-3 = assay: NCI60 five-dose screen; format: cell-based; details: Homo sapiens, OVCAR-3, ovarian cancer; for CC50: read-out: LC50 (the source's name)
# OVCAR-5 = assay: NCI60 five-dose screen; format: cell-based; details: Homo sapiens, OVCAR-5, ovarian cancer; for CC50: read-out: LC50 (the source's name)
# NCI/ADR-RES = assay: NCI60 five-dose screen; format: cell-based, human; details: Homo sapiens, ovarian cancer; for CC50: read-out: LC50 (the source's name)
# ACHN = assay: NCI60 five-dose screen; format: cell-based; details: Homo sapiens, renal cancer; for CC50: read-out: LC50 (the source's name)
# TK-10 = assay: NCI60 five-dose screen; format: cell-based; details: Homo sapiens, TK-10, renal cancer; for CC50: read-out: LC50 (the source's name)
# DU-145 = assay: NCI60 five-dose screen; format: cell-based; details: Homo sapiens, DU-145, prostate cancer; for CC50: read-out: LC50 (the source's name)
# MCF7 = assay: NCI60 five-dose screen; format: cell-based; details: Homo sapiens; for CC50: read-out: LC50 (the source's name)
# MDA-MB-231/ATCC = assay: NCI60 five-dose screen; format: cell-based; details: Homo sapiens, breast cancer; for CC50: read-out: LC50 (the source's name)
# T-47D = assay: NCI60 five-dose screen; format: cell-based; details: Homo sapiens, T47D, breast cancer; for CC50: read-out: LC50 (the source's name)
# Human CYP19 (aromatase) = target: T1, Human CYP19 (aromatase) (Homo sapiens, UniProt P11511); assay: Aromatase inhibition assay (DBF fluorometric substrate); format: biochemical; details: active defined as IC50 < 12.5 µM
# T1 construct: purchased GENTEST, Woburn, MA 456260; host or cells: baculovirus/insect cells
# T1 sequence (P11511 1-503): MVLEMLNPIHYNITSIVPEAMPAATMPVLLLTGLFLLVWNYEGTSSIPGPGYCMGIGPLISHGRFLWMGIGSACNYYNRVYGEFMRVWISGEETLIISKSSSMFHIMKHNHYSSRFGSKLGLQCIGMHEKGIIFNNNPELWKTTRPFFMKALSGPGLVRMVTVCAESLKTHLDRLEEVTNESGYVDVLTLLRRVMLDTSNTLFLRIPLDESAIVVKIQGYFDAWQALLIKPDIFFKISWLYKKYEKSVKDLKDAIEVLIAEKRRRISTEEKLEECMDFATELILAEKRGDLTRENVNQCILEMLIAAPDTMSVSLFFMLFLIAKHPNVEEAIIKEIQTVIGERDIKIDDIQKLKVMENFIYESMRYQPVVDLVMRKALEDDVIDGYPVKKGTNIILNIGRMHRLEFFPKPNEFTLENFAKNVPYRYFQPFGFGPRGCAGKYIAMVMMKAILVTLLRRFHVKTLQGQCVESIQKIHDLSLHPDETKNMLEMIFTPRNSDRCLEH
# Protocol: Aromatase enzyme was purchased from GENTEST, Woburn, MA01801, USA (Supersom human CYP19+oxidoreductase, baculovirus/insect cell-expressed; Product No. 456260). The aromatase inhibitory activity was performed using Human CYP19 enzymes and DBF as a fluorometric substrate as described by Stresser, et al.[41] with minor modifications. The mixture, containing 100 µL of cofactor/serial dilution buffer was pre-incubated in 37 °C for 10 min. […] After incubation at 37 °C for 30 min, the reaction was stopped by addition of 50 µL of 2.2 M NaOH. Fluorescence signal was monitored using an excitation wavelength of 490 nm and emission wavelength of 530 nm.
# [1] = test system: T47D breast cancer cell line; assay: Cytotoxicity MTT assay, T47D; format: cell-based, human
# Protocol: T47D (ATCC HTB-133) was purchased from Biomedia (Thailand) Co., LTD. L929 (ATCC CCL-1) was received as a gift from Prof. Tanapat Palaga, Department of Microbiology, Faculty of Science, Chulalongkorn University, Bangkok, Thailand. The cells were cultured in Dulbecco's Modified Eagle's Medium (DMEM; Gibco) supplemented with 10% fetal bovine serum (FBS; HyClone), 100 U mL^−1 penicillin and 100 µg mL^−1 streptomycin (Gibco) at 37 °C with 5% CO2.
# The antiproliferative activity was determined by MTT assay. Briefly, the cells were plated into a 96-well microplate at the density of 10 000 cells per well. The cells were allowed to grow overnight before treated with the solutions of compounds in culture medium at the designated concentrations for 48 hours. The medium was then replaced with MTT solution (0.5 mg mL^−1 MTT in culture medium) and incubated for 3 hours. A 100 µL of DMSO was used to dissolve the produced formazan. Absorbance at 570 nm was then measured using a microplate reader (Varioskan™ LUX multimode microplate reader, Thermo Scientific™). Percent viability was calculated relative to the vehicle control (DMSO).
smiles,measurement,setting,value
"Cn1cccc1/C=N/NC(=O)c1[nH]c2ccc(Br)cc2c1-c1ccccc1 [Derivative 3d, (E)-5-Bromo-N′-((1-methyl-1H-pyrrol-2-yl)methylene)-3-phenyl-1H-indole-2-carbohydrazide]",GI50,K-562,327 nM
same,CC50,K-562,> 100000 nM
same,GI50,EKVX,641 nM
same,CC50,EKVX,> 100000 nM
same,GI50,NCI-H522,217 nM
same,CC50,NCI-H522,> 100000 nM
same,GI50,HCC-2998,402 nM
same,CC50,HCC-2998,> 100000 nM
same,GI50,HT29,327 nM
same,CC50,HT29,> 100000 nM
same,GI50,SW-620,432 nM
same,CC50,SW-620,> 100000 nM
same,GI50,SF-539,217 nM
same,CC50,SF-539,> 100000 nM
same,GI50,SNB-19,449 nM
same,CC50,SNB-19,> 100000 nM
same,GI50,M14,324 nM
same,CC50,M14,> 100000 nM
same,GI50,SK-MEL-2,366 nM
same,CC50,SK-MEL-2,> 100000 nM
same,GI50,UACC-62,283 nM
same,CC50,UACC-62,> 100000 nM
same,GI50,OVCAR-3,246 nM
same,CC50,OVCAR-3,> 100000 nM
same,GI50,OVCAR-5,472 nM
same,CC50,OVCAR-5,> 100000 nM
same,GI50,NCI/ADR-RES,186 nM
same,CC50,NCI/ADR-RES,40900 nM
same,GI50,ACHN,175 nM
same,CC50,ACHN,> 100000 nM
same,GI50,TK-10,1010 nM
same,CC50,TK-10,> 100000 nM
same,GI50,DU-145,399 nM
same,CC50,DU-145,> 100000 nM
same,GI50,"MCF7; MCF7, MCF-7 breast cancer cells",72 nM
same,CC50,"MCF7; MCF7, breast cancer",> 100000 nM
same,GI50,MDA-MB-231/ATCC,237 nM
same,CC50,MDA-MB-231/ATCC,> 100000 nM
same,GI50,T-47D,344 nM
same,CC50,T-47D,> 100000 nM
same,IC50,Human CYP19 (aromatase),> 12500 nM
same,aromatase inhibition,Human CYP19 (aromatase),inactivity against aromatase
same,IC50,"[1]; Homo sapiens, T47D, MTT, 48 hours",1000 ± 400 nM
"O=C(N/N=C/c1cc[nH]c1)c1[nH]c2ccc(Br)cc2c1-c1ccccc1 [Derivative 3b, (E)-N′-((1H-Pyrrol-3-yl)methylene)-5-bromo-3-phenyl-1H-indole-2-carbohydrazide]",GI50,K-562,429 nM
same,CC50,K-562,97000 nM
same,GI50,EKVX,4410 nM
same,CC50,EKVX,41700 nM
same,GI50,NCI-H522,925 nM
same,CC50,NCI-H522,24000 nM
same,GI50,HCC-2998,1550 nM
same,CC50,HCC-2998,32700 nM
same,GI50,HT29,680 nM
same,CC50,HT29,34500 nM
same,GI50,SW-620,548 nM
same,CC50,SW-620,49400 nM
same,GI50,SF-539,869 nM
same,CC50,SF-539,17000 nM
same,GI50,SNB-19,2550 nM
same,CC50,SNB-19,39800 nM
same,GI50,M14,1580 nM
same,CC50,M14,45800 nM
same,GI50,SK-MEL-2,2480 nM
same,CC50,SK-MEL-2,38400 nM
same,GI50,UACC-62,1030 nM
same,CC50,UACC-62,41300 nM
same,GI50,OVCAR-3,1090 nM
same,CC50,OVCAR-3,31900 nM
same,GI50,OVCAR-5,1740 nM
same,CC50,OVCAR-5,38500 nM
same,GI50,NCI/ADR-RES,636 nM
same,CC50,NCI/ADR-RES,27100 nM
same,GI50,ACHN,1710 nM
same,CC50,ACHN,39000 nM
same,GI50,TK-10,11100 nM
same,CC50,TK-10,58000 nM
same,GI50,DU-145,1950 nM
same,CC50,DU-145,34700 nM
same,GI50,"MCF7; MCF7, breast cancer",436 nM
same,CC50,"MCF7; MCF7, breast cancer",49800 nM
same,GI50,MDA-MB-231/ATCC,1620 nM
same,CC50,MDA-MB-231/ATCC,26400 nM
same,GI50,T-47D,3490 nM
same,CC50,T-47D,> 100000 nM
same,IC50,Human CYP19 (aromatase),11000 ± 1300 nM
same,activity against T47D in two-dose screen,[1]; 10 µM and 50 µM,weak activity
